From US11046658B2, “Aminopyrazine derivatives as PI3K-γ inhibitors” (Incyte Corporation, priority 2018, dated 2021)
Counter-ions that a name gives are not always drawn. Like-named read-outs stand apart in the source and are kept apart here.

Key:
[1] = target: PI3Kδ (p110δ/p85α) Recombinant Human Protein (Homo sapiens (Human), UniProt O00329); assay: PI3Kδ Scintillation Proximity Assay; format: biochemical; conditions: 2 μM ATP, 20 μM PIP2
Description: Materials: [γ-^33P]ATP (10 mCi/mL) and Wheat Germ Agglutinin (WGA) YSi SPA Scintillation Beads was purchased from Perkin Elmer (Waltham, Mass.). Lipid kinase substrate, D-myo-Phosphatidylinositol 4,5-bisphosphate (PtdIns(4,5)P2)D (+)-sn-1,2-di-O-octanoylglyceryl, 3-O-phospho linked (PIP2), CAS 204858-53-7, was purchased from Echelon Biosciences (Salt Lake City, Utah). PI3Kδ (p110δ/p85α) Recombinant Human Protein was purchased from Eurofins (St Charles, Mo.). ATP, MgCl2, DTT, EDTA, MOPS and CHAPS were purchased from Sigma Aldrich (St. Louis, Mo.).
The kinase reaction was conducted in polystyrene 384-well Greiner Bio-one white plate from Thermo Fisher Scientific in a final volume of 25 μL. Inhibitors were first diluted serially in DMSO and added to the plate wells before the addition of other reaction components. The final concentration of DMSO in the assay was 2%. The PI3Kδ assay was carried out at room temperature in 20 mM MOPS, pH 6.7, 10 mM MgCl2, 5 mM DTT and CHAPS 0.03%. Reactions were initiated by the addition of ATP, the final reaction mixture consisted of 20 μM PIP2, 2 μM ATP, 0.5 μCi [γ-^33P] ATP, 3.4 nM PI3Kδ. Reactions were incubated for 120 min and terminated by the addition of 40 μL SPA beads suspended in quench buffer: 163 mM potassium phosphate pH 7.8, 20% glycerol, 25 mM EDTA. The final concentration of SPA beads is 1.0 mg/mL. After the plate sealing, plates were shaken overnight at room temperature and centrifuged at 1500 rpm for 10 min, the radioactivity of the product was determined by scintillation counting on Topcount (PerkinElmer). IC50 determination was performed by fitting the curve of percent of the solvent control activity versus the log of the inhibitor concentration using the GraphPad Prism 6.0 software.

[2] = tested on: Phosphorylated Ribosomal Protein S6 (RPS6) in THP-1 cells; assay: THP-1 RPS6 ELISA Assay; format: cell-based, Human; conditions: Homo sapiens, THP-1 cells, 10 nM MCP-1, read-out: PI3Kγ_THP1_RPS6_ELISA IC50
Outline: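 Cells serum-starved overnight, pre-incubated with compounds 2 h at 37° C, then stimulated with 10 nM MCP-1 for 15 min. Lysates assayed for phospho-RPS6 by ELISA read at 450 nm. IC50 from percent inhibition vs log concentration curve fit.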

PI3Kδ (p110δ/p85α) Recombinant Human Protein, sequence (O00329 whole entry): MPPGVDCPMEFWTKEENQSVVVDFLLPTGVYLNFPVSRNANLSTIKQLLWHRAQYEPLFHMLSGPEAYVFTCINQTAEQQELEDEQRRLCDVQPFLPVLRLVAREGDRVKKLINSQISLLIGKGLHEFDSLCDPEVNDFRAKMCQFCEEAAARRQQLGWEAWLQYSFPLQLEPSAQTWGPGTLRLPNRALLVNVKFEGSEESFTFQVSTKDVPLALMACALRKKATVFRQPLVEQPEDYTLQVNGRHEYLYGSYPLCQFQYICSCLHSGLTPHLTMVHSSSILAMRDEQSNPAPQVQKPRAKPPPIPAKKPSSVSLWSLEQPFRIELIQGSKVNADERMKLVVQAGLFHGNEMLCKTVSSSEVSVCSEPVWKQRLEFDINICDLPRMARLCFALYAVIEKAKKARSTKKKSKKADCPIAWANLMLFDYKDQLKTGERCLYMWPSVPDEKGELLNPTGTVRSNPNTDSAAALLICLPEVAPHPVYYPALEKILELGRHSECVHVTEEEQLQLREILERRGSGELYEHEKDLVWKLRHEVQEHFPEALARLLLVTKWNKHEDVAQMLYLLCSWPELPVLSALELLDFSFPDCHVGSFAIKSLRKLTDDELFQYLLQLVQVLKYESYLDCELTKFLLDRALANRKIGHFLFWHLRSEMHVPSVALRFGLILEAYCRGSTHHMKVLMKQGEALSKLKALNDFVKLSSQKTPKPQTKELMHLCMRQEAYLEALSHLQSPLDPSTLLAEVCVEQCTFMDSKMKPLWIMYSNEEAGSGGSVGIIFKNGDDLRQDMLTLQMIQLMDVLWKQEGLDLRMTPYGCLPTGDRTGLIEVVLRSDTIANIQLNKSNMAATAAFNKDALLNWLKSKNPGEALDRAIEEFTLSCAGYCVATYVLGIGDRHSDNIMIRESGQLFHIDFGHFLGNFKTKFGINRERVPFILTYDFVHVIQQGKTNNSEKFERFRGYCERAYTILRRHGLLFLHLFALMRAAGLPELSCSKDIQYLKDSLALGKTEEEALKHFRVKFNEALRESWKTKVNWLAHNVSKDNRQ
PI3Kδ (p110δ/p85α) Recombinant Human Protein, sequence (P27986 whole entry partner): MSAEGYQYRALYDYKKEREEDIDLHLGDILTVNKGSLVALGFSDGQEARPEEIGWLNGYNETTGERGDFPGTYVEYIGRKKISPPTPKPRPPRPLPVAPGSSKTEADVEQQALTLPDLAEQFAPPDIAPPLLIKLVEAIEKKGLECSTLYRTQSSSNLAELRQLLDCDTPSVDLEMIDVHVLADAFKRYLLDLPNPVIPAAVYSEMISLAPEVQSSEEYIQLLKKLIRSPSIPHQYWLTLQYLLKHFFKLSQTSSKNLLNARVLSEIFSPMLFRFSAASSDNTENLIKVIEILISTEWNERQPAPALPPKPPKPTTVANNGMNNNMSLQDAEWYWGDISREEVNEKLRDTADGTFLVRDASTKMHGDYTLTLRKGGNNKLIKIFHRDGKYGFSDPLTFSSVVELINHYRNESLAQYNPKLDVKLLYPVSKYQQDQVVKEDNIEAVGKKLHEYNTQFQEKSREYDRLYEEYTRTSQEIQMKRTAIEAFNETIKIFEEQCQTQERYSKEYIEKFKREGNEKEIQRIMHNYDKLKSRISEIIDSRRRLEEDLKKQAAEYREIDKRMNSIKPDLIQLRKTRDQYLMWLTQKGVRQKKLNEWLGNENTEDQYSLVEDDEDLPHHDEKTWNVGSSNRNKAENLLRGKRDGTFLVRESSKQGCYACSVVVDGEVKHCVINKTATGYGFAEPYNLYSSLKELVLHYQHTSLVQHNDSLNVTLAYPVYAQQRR

| Structure (SMILES) | IC50 ([1]; Table A3) [nM] | IC50 ([2]; Table A3) [nM] | IC50 ([1]; Table A4) [nM] | IC50 ([2]; Table A4) [nM] | other results |
| --- | --- | --- | --- | --- | --- |
| Cc1ccc(C(O)(C(N)=O)C(F)(F)F)cc1-c1cnc(N)c(-c2ccc(C3CC3)cc2)n1 (stereo not drawn) [Example 92, 2-(3-(5-amino-6-(4-cyclopropylphenyl)pyrazin-2-yl)-4-methylphenyl)-3,3,3-trifluoro-2-hydroxypropanamide trifluoroacetate] | < 500 | < 500 |  |  |  |
| CCOc1ccccc1N1CCN(c2nc(-c3cc(C(O)(C(N)=O)C(F)(F)F)ccc3C)cnc2N)CC1 (stereo not drawn) [Example 129, 2-(3-(5-amino-6-(4-(2-ethoxyphenyl)piperazin-1-yl)pyrazin-2-yl)-4-methylphenyl)-3,3,3-trifluoro-2-hydroxypropanamide trifluoroacetate] |  |  | < 500 | < 1000 |  |
| Cc1ccc(C(O)(CNC(=O)C(C)(C)O)C(F)(F)F)cc1-c1cnc(N)c(C(=O)NC(C)C)n1 (stereo not drawn) [Example 41, 3-Amino-N-isopropyl-6-(2-methyl-5-(1,1,1-trifluoro-2-hydroxy-3-(2-hydroxy-2-methylpropanamido)propan-2-yl)phenyl)pyrazine-2-carboxamide trifluoroacetate] |  |  |  |  | IC50 ([1]; Table A1): < 500 nM; IC50 ([2]; Table A1): > 1000 nM |
| Cc1ccc(C(O)(C(N)=O)C(F)(F)F)cc1-c1cnc(N)c(C(F)(F)F)n1 (stereo not drawn) [Example 46, 2-(3-(5-Amino-6-(trifluoromethyl)pyrazin-2-yl)-4-methylphenyl)-3,3,3-trifluoro-2-hydroxypropanamide trifluoroacetate] |  |  |  |  | IC50 ([1]; Table A2): < 500 nM |
| Cc1ccc(C(O)(C(N)=O)C(F)(F)F)cc1-c1cnc(N)c(-c2cncnc2)n1 (stereo not drawn) [Example 81, 2-(3-(5-amino-6-(pyrimidin-5-yl)pyrazin-2-yl)-4-methylphenyl)-3,3,3-trifluoro-2-hydroxypropanamide trifluoroacetate] | < 500 | < 500 |  |  |  |
| Cc1ccc(C(O)(C(N)=O)C(F)(F)F)cc1-c1cnc(N)c(N2CCN(c3ccccc3C)CC2)n1 (stereo not drawn) [Example 118, 2-(3-(5-amino-6-(4-o-tolylpiperazin-1-yl)pyrazin-2-yl)-4-methylphenyl)-3,3,3-trifluoro-2-hydroxypropanamide trifluoroacetate] |  |  | < 500 | < 1000 |  |
| C/C=C\c1nc(-c2cc(C(O)(C(N)=O)C(F)(F)F)ccc2C)cnc1N (stereo not drawn) [Example 44, (Z)-2-(3-(5-amino-6-(prop-1-en-1-yl)pyrazin-2-yl)-4-methylphenyl)-3,3,3-trifluoro-2-hydroxypropanamide] |  |  |  |  | IC50 ([1]; Table A2): < 500 nM |
| CCCc1nc(-c2cc(C(O)(C(N)=O)C(F)(F)F)ccc2C)cnc1N (stereo not drawn) [Example 45, 2-(3-(5-amino-6-propylpyrazin-2-yl)-4-methylphenyl)-3,3,3-trifluoro-2-hydroxypropanamide] |  |  |  |  | IC50 ([1]; Table A2): < 500 nM; IC50 ([2]; Table A2): < 500 nM |
| Cc1ccc(C(O)(C(N)=O)C(F)(F)F)cc1-c1cnc(N)c(N2CCN(c3cccc(C(F)(F)F)c3)CC2)n1 (stereo not drawn) [Example 121, 2-(3-(5-amino-6-(4-(3-(trifluoromethyl)phenyl)piperazin-1-yl)pyrazin-2-yl)-4-methylphenyl)-3,3,3-trifluoro-2-hydroxypropanamide trifluoroacetate] |  |  | < 500 | > 1000 |  |
| CNC(=O)c1ccc(-c2nc(-c3cc(C(O)(C(N)=O)C(F)(F)F)ccc3C)cnc2N)cn1 (stereo not drawn) [Example 80, 5-(3-amino-6-(5-(3-amino-1,1,1-trifluoro-2-hydroxy-3-oxopropan-2-yl)-2-methylphenyl)pyrazin-2-yl)-N-methylpicolinamide bistrifluoroacetate] | < 500 | < 1000 |  |  |  |
| Cc1ccc(C(O)(C(N)=O)C(F)(F)F)cc1-c1cnc(N)c(-c2cccc(C(C)C)c2)n1 (stereo not drawn) [Example 90, 2-(3-(5-amino-6-(3-isopropylphenyl)pyrazin-2-yl)-4-methylphenyl)-3,3,3-trifluoro-2-hydroxypropanamide trifluoroacetate] | < 500 | < 500 |  |  |  |
| Cc1ccc(C(O)(C(N)=O)C(F)(F)F)cc1-c1cnc(N)c(N2CCN(C(C)(C)C)C(=O)C2)n1 (stereo not drawn) [Example 113, 2-(3-(5-amino-6-(4-tert-butyl-3-oxopiperazin-1-yl)pyrazin-2-yl)-4-methylphenyl)-3,3,3-trifluoro-2-hydroxypropanamide trifluoroacetate] |  |  | < 500 | < 500 |  |
| Cc1ccc(C)c(N2CCN(c3nc(-c4cc(C(O)(C(N)=O)C(F)(F)F)ccc4C)cnc3N)CC2)c1 (stereo not drawn) [Example 119, 2-(3-(5-amino-6-(4-(2,5-dimethylphenyl)piperazin-1-yl)pyrazin-2-yl)-4-methylphenyl)-3,3,3-trifluoro-2-hydroxypropanamide trifluoroacetate] |  |  | < 500 | > 1000 |  |
| Cc1ccc(C(O)(C(N)=O)C(F)(F)F)cc1-c1cnc(N)c(N2CCN(c3ccccc3)CC2)n1 (stereo not drawn) [Example 116, 2-(3-(5-amino-6-(4-phenylpiperazin-1-yl)pyrazin-2-yl)-4-methylphenyl)-3,3,3-trifluoro-2-hydroxypropanamide trifluoroacetate] |  |  | < 500 |  | IC50 ([2]; Table A4, cells given with + symbol): < 100 nM |
| Cc1ccc(C(O)(CNC=O)C(F)(F)F)cc1-c1cnc(N)c(-c2cn[nH]c2)n1 (stereo not drawn) [Example 103, N-(2-(3-(5-amino-6-(1H-pyrazol-4-yl)pyrazin-2-yl)-4-methylphenyl)-3,3,3-trifluoro-2-hydroxypropyl)formamide trifluoroacetate] | < 500 | < 500 |  |  |  |
| Cc1ccc(C(O)(C(N)=O)C(F)(F)F)cc1-c1cnc(N)c(C(=O)N2CCc3cccnc32)n1 (stereo not drawn) [Example 28, 2-(3-(5-amino-6-(2,3-dihydro-1H-pyrrolo[2,3-b]pyridine-1-carbonyl)pyrazin-2-yl)-4-methylphenyl)-3,3,3-trifluoro-2-hydroxypropanamide] |  |  |  |  | IC50 ([1]; Table A1): < 500 nM; IC50 ([2]; Table A1): < 100 nM |
| Cc1ccc(C(O)(C(N)=O)C(F)(F)F)cc1-c1cnc(N)c(N2CCN(C3CC3)C(=O)C2)n1 (stereo not drawn) [Example 112, 2-(3-(5-amino-6-(4-cyclopropyl-3-oxopiperazin-1-yl)pyrazin-2-yl)-4-methylphenyl)-3,3,3-trifluoro-2-hydroxypropanamide trifluoroacetate] |  |  | < 500 | < 500 |  |
| Cc1ccc(C(O)(C(N)=O)C(F)(F)F)cc1-c1cnc(N)c(N2CC(=O)N(c3ccc(O)cc3)[C@@H](CO)C2)n1 (stereo partly drawn) [Example 124, 2-(3-(5-amino-6-((R)-3-(hydroxymethyl)-4-(4-hydroxyphenyl)-5-oxopiperazin-1-yl)pyrazin-2-yl)-4-methylphenyl)-3,3,3-trifluoro-2-hydroxypropanamide trifluoroacetate] |  |  | < 500 | < 1000 |  |
| CNC(=O)C(O)(c1ccc(C)c(-c2cnc(N)c(-c3cnn(C)c3)n2)c1)C(F)(F)F (stereo not drawn) [Example 96, 2-(3-(5-Amino-6-(1-methyl-1H-pyrazol-4-yl)pyrazin-2-yl)-4-methylphenyl)-3,3,3-trifluoro-2-hydroxy-N-methylpropanamide] | < 500 | < 100 |  |  |  |
